Laboratory results from article PMC7673538 (PLoS Biology, 2020).
Where “and” joins values, the source holds several entries; their conditions need not be identical. Identical values can stand only once. Like-named read-outs stand apart in the source and are kept apart here.

What was measured:
CV-B3 [1] = assay: microbe, parasite or virus in culture; format: cell-based, coxsackievirus B3
CV-A24 = assay: microbe, parasite or virus in culture; format: cell-based, coxsackievirus A24
in vitro [2] = settings: human
CV-B3 [3] = assay: microbe, parasite or virus in culture; format: cell-based, coxsackievirus B3; settings: Enterovirus B, CVB3, BGM
CV-A24v = assay: microbe, parasite or virus in culture; format: cell-based, coxsackievirus A24v; settings: for EC50: Coxsackievirus
EV-A71 = assay: microbe, parasite or virus in culture; format: cell-based, enterovirus A71; settings: for EC50: Enterovirus A
[4] = test system: representative EVs and RVs; format: cell-based
in vitro [5] = settings: monkey
CV-B3 (strain Nancy) = format: cell-based, coxsackievirus B3

COc1ccc(N(Cc2ccc(F)cc2)C(=O)c2cc[nH]c2)cc1 [Compound 12a, N-(4-Fluorobenzyl)-N-(4-methoxyphenyl)-1H-pyrrole-3-carboxamide]
Figure 7 dose-response raw data, CV-B3 (triplicate values) (CV-B3 [1]; Concentration 10 µM): 102.144 and 95.7122 and 98.0623
EC50 (CV-B3 [1]; Enterovirus B, CVB3, HeLa): 0.01 ± 0.01 µM
EC50 (CV-B3 [1]; Enterovirus B, CVB3, HeLa R19, […], read-out: EC50 Exp1): 0.18 µM
EC50 (CV-B3 [1]; Enterovirus B, CVB3, HeLa R19, read-out: 50% effective concentration [EC50]): 0.08 ± 0.08 µM
EC50 (CV-B3 [1]; Enterovirus B, CVB3, HeLa R19, read-out: CV-B3 Exp 1 EC50): 0.059 µM
EC50 (CV-B3 [1]; Enterovirus B, CVB3, HeLa R19, read-out: CV-B3 Exp2 EC50): 0.095 µM
EC50 (CV-B3 [1]; Enterovirus B, CVB3, HeLa R19, read-out: EC50 Average): 0.0187 µM
EC50 (CV-B3 [1]; Enterovirus B, CVB3, HeLa R19, read-out: EC50 Exp1): 0.017 µM
EC50 (CV-B3 [1]; Enterovirus B, CVB3, HeLa R19, read-out: EC50 Exp2): 0.37 µM
EC50 (CV-B3 [1]; Enterovirus B, CVB3, HeLa R19, read-out: EC50 HelaR19 Average): 0.0112 µM
EC50 (CV-B3 [1]; Enterovirus B, CVB3, HeLa R19, read-out: Exp 1 EC50 HelaR19): 0.004 µM
EC50 (CV-B3 [1]; Enterovirus B, CVB3, HeLa R19, read-out: Exp 2 EC50 HelaR19): 0.0183 µM
EC50 (CV-B3 [1]; Enterovirus B, CVB3 / genotype 2c, HeLa R19, read-out: EC50 CV-B3 WT): 0.02 ± 0.01 µM
EC50 (CV-B3 [1]; read-out: EC50 Exp2): 0.21 µM
EC50 (CV-A24; Enterovirus C, CVA24, HeLa R19, read-out: EC50 Average): 3.46 µM
EC50 (CV-A24; Enterovirus C, CVA24, HeLa R19, read-out: EC50 CV-A24): 3.51 ± 0.22 µM
EC50 (CV-A24; Enterovirus C, CVA24, HeLa R19, read-out: EC50 CV-A24 strain Joseph): 3.45 ± 0.42 µM
EC50 (CV-A24; Enterovirus C, CVA24, HeLa R19, read-out: EC50 Exp1): 3.29 µM
EC50 (CV-A24; Enterovirus C, CVA24, HeLa R19, read-out: EC50 Exp2): 3.73 µM
EC50 (CV-A24; read-out: EC50 Exp1): 3.04 µM
EC50 (CV-A24; read-out: EC50 Exp2): 3.87 µM
CC50 (in vitro [2]; CC50 Average): > 30 µM
CC50 (in vitro [2]; CC50 HelaR19 Average): > 100 µM
CC50 (in vitro [2]; Exp 1 CC50): > 30 µM
CC50 (in vitro [2]; Exp 1 CC50 HelaR19): > 100 µM
CC50 (in vitro [2]; Exp2 CC50): > 30 µM
CC50 (in vitro [2]; Exp 2 CC50 HelaR19): > 100 µM
EC50 (CV-B3 [3]): 0.04 ± 0.02 µM
EC50 (CV-B3 [3]; read-out: EC50 BGM Average): 0.035 µM
EC50 (CV-B3 [3]; read-out: Exp 1 EC50 BGM): 0.02 µM
EC50 (CV-B3 [3]; read-out: Exp 2 EC50 BGM): 0.05 µM
Figure 7 dose-response raw data, CV-A24v (triplicate values) (CV-A24v; Concentration 0.0046 µM): 10.497 and 11.7005 and 9.1598
Figure 7 dose-response raw data, CV-A24v (triplicate values) (CV-A24v; Concentration 0.0137 µM): 16.1819 and 13.1094 and 20.3605
Figure 7 dose-response raw data, CV-A24v (triplicate values) (CV-A24v; Concentration 0.0412 µM): 16.1819 and 13.1094 and 20.3605
Figure 7 dose-response raw data, CV-A24v (triplicate values) (CV-A24v; Concentration 0.1235 µM): 12.9865 and 12.4949 and 21.3437
Figure 7 dose-response raw data, CV-A24v (triplicate values) (CV-A24v; Concentration 0.3704 µM): 12.7407 and 14.2155 and 15.1987
Figure 7 dose-response raw data, CV-A24v (triplicate values) (CV-A24v; Concentration 1.1111 µM): 10.0369 and 10.7743 and 14.83
Figure 7 dose-response raw data, CV-A24v (triplicate values) (CV-A24v; Concentration 3.3333 µM): 9.791 and 10.5285 and 14.2155
Figure 7 dose-response raw data, CV-A24v (triplicate values) (CV-A24v; Concentration 11.1111 µM): 82.2926 and 86.3728 and 89.8506
Figure 7 dose-response raw data, CV-A24v (triplicate values) (CV-A24v; Concentration 33.3333 µM): 113.496 and 111 and 111.553
Figure 7 dose-response raw data, CV-A24v (triplicate values) (CV-A24v; Concentration 100 µM): 106.3 and 102.374 and 110.232
EC50 (CV-A24v; HeLa R19, read-out: EC50 CV-A24v strain 110386): 1.94 ± 0.07 µM
EC50 (CV-A24v; HeLa R19, read-out: EC50 CV-A24v strain 110389): 3.77 ± 0.32 µM
EC50 (CV-A24v; HeLa R19, read-out: EC50 CV-A24v strain 110390): 1.91 ± 0.55 µM
EC50 (CV-A24v; HeLa R19, read-out: EC50 CV-A24v strain 110392): 2.32 ± 0.23 µM
Figure 7 dose-response raw data, EV-A71 (triplicate values) (EV-A71; Concentration 0.0046 µM): 12.3336 and 15.0352 and 19.2639
Figure 7 dose-response raw data, EV-A71 (triplicate values) (EV-A71; Concentration 0.0137 µM): 12.3336 and 12.2161 and 11.2764
Figure 7 dose-response raw data, EV-A71 (triplicate values) (EV-A71; Concentration 0.0412 µM): 12.0987 and 12.2161 and 13.2733
Figure 7 dose-response raw data, EV-A71 (triplicate values) (EV-A71; Concentration 0.1235 µM): 11.9812 and 14.0955 and 13.6257
Figure 7 dose-response raw data, EV-A71 (triplicate values) (EV-A71; Concentration 0.3704 µM): 12.5685 and 16.7972 and 13.6257
Figure 7 dose-response raw data, EV-A71 (triplicate values) (EV-A71; Concentration 1.1111 µM): 12.3336 and 15.0352 and 19.2639
Figure 7 dose-response raw data, EV-A71 (triplicate values) (EV-A71; Concentration 3.3333 µM): 12.3336 and 15.0352 and 19.2639
Figure 7 dose-response raw data, EV-A71 (triplicate values) (EV-A71; Concentration 11.1111 µM): 119.819 and 116.746 and 110.126
Figure 7 dose-response raw data, EV-A71 (triplicate values) (EV-A71; Concentration 33.3333 µM): 119.701 and 118.637 and 111.781
Figure 7 dose-response raw data, EV-A71 (triplicate values) (EV-A71; Concentration 100 µM): 110.819 and 116.746 and 120.126
EC50 (EV-A71; EVA71, HeLa R19, read-out: EC50 EV-A71): 4.03 ± 0.73 µM
EC50 (EV-A71; EVA71, HeLa R19, read-out: EC50 EV-A71 strain BrCr): 4.48 ± 0.42 µM
EC50 (EV-A71; EVA71, HeLa R19, read-out: EC50 EV-A71 strain TW/2728/04): 8.33 ± 0.65 µM
EC50 (EV-A71; EVA71, HeLa R19, read-out: EC50 EV-A71 strain TW/2945/98): 9.17 ± 0.41 µM
EC50 (EV-A71; EVA71, HeLa R19, read-out: EC50 EV-A71 strain TW/70811/08): 8.18 ± 0.61 µM
EC50 (EV-A71; EVA71, HeLa R19, read-out: EC50 EV-A71 strain TW/72232/04): 6.41 ± 2.09 µM
EC50 (EV-A71; EVA71, HeLa R19, read-out: EC50 EV-A71 strain TW/96016/08): 9.47 ± 0.04 µM
inhibition of contemporary/clinical isolates of EV-A71, CV-A24v and EV-D68 (in words) [4]: inhibited all clinical isolates of EV-A71, CV-A24v, and EV-D68 tested
spectrum of antiviral activity (in words) [4]: inhibited all representative EVs and RVs
CC50 (in vitro [5]; CC50): > 100 µM
CC50 (in vitro [5]; CC50 BGM Average): > 100 µM
CC50 (in vitro [5]; Exp 1 CC50 BGM): > 100 µM
CC50 (in vitro [5]; Exp 2 CC50 BGM): > 100 µM
virus titer, TCID50/ml (Figure 2A) (CV-B3 (strain Nancy); compound concentration 0.001 µM): 316227800 TCID50/ml and 467735100 TCID50/ml
virus titer, TCID50/ml (Figure 2A) (CV-B3 (strain Nancy); compound concentration 0.01 µM): 467735100 TCID50/ml and 316227800 TCID50/ml
